± gives the expanded uncertainty stated by the source.
Experiments:
[1] = xn = mol fraction of the nth substance listed; conditions: 101 kPa, Liquid; for speed of sound: Pulse-echo method
[2] = refractive index (Na D-line) (dimensionless); xn = mol fraction of the nth substance listed; conditions: 101 kPa, Liquid, Standard Abbe refractometry

CN1CCCC1=O [N-methylpyrrolidone] + CCO
Conditions	mass density, [1] [kg/m3]	refractive index, [2]	speed of sound, [1] [m/s]	viscosity, [1] [mPa·s]
293.15 K, x1 = 0.0992	829.76 ± 0.77	1.3797 ± 0.0005	1226.1 ± 1.1	1.139 ± 0.018
293.15 K, x1 = 0.1985	864.84 ± 0.69	1.3953 ± 0.0005	1284.2 ± 1.1	1.173 ± 0.019
293.15 K, x1 = 0.2973	894.36 ± 0.64	1.4089 ± 0.0005	1331.7 ± 1.2	1.218 ± 0.02
293.15 K, x1 = 0.3963	920.89 ± 0.59	1.4209 ± 0.0005	1375.7 ± 1.2	1.275 ± 0.021
293.15 K, x1 = 0.4948	944.41 ± 0.56	1.4313 ± 0.0005	1414.8 ± 1.2	1.354 ± 0.022
293.15 K, x1 = 0.5932	965 ± 0.53	1.4406 ± 0.0005	1448.9 ± 1.2	1.436 ± 0.023
293.15 K, x1 = 0.6912	983.96 ± 0.51	1.449 ± 0.0005	1480.7 ± 1.3	1.524 ± 0.025
293.15 K, x1 = 0.7897	1000.86 ± 0.49	1.4563 ± 0.0005	1509.4 ± 1.3	1.626 ± 0.026
293.15 K, x1 = 0.8875	1016.79 ± 0.53	1.4633 ± 0.0005	1537 ± 1.3	1.726 ± 0.028
293.15 K, x1 = 1	1032.87 ± 0.55	1.4706 ± 0.0006	1565.3 ± 1.4	1.858 ± 0.03
303.15 K, x1 = 0.0992	820.98 ± 0.78	1.376 ± 0.0006	1191.3 ± 1.1	0.9625 ± 0.016
303.15 K, x1 = 0.1985	855.96 ± 0.71	1.3916 ± 0.0005	1248.9 ± 1.1	0.986 ± 0.016
303.15 K, x1 = 0.2973	885.42 ± 0.65	1.4051 ± 0.0005	1295.9 ± 1.1	1.033 ± 0.017
303.15 K, x1 = 0.3963	911.91 ± 0.61	1.4168 ± 0.0005	1338.9 ± 1.2	1.09 ± 0.018
303.15 K, x1 = 0.4948	935.43 ± 0.57	1.4273 ± 0.0005	1377.6 ± 1.2	1.15 ± 0.019
303.15 K, x1 = 0.5932	955.97 ± 0.54	1.4366 ± 0.0005	1411.4 ± 1.2	1.22 ± 0.02
303.15 K, x1 = 0.6912	974.94 ± 0.52	1.4449 ± 0.0005	1442.9 ± 1.3	1.292 ± 0.021
303.15 K, x1 = 0.7897	991.85 ± 0.5	1.4523 ± 0.0005	1471.4 ± 1.3	1.371 ± 0.022
303.15 K, x1 = 0.8875	1007.8 ± 0.51	1.4593 ± 0.0006	1498.5 ± 1.3	1.45 ± 0.024
303.15 K, x1 = 1	1023.95 ± 0.53	1.4664 ± 0.0006	1526.5 ± 1.3	1.553 ± 0.025
313.15 K, x1 = 0.0992	812.09 ± 0.79	1.3717 ± 0.0006	1157 ± 1.1	0.803 ± 0.014
313.15 K, x1 = 0.1985	846.98 ± 0.72	1.3872 ± 0.0005	1214.7 ± 1.1	0.8276 ± 0.014
313.15 K, x1 = 0.2973	876.39 ± 0.66	1.4011 ± 0.0005	1260.3 ± 1.1	0.867 ± 0.015
313.15 K, x1 = 0.3963	902.87 ± 0.62	1.4127 ± 0.0005	1302.5 ± 1.2	0.9234 ± 0.015
313.15 K, x1 = 0.4948	926.39 ± 0.58	1.4234 ± 0.0005	1341 ± 1.2	0.98 ± 0.016
313.15 K, x1 = 0.5932	946.9 ± 0.55	1.4329 ± 0.0005	1374.2 ± 1.2	1.039 ± 0.017
313.15 K, x1 = 0.6912	965.89 ± 0.53	1.4411 ± 0.0005	1405.3 ± 1.2	1.109 ± 0.018
313.15 K, x1 = 0.7897	982.82 ± 0.51	1.4484 ± 0.0005	1433.5 ± 1.3	1.173 ± 0.019
313.15 K, x1 = 0.8875	998.8 ± 0.5	1.4552 ± 0.0006	1460.3 ± 1.3	1.237 ± 0.02
313.15 K, x1 = 1	1015.03 ± 0.52	1.4621 ± 0.0006	1487.8 ± 1.3	1.324 ± 0.022
323.15 K, x1 = 0.0992	803.05 ± 0.81	1.3677 ± 0.0006	1122.7 ± 1.1	0.657 ± 0.012
323.15 K, x1 = 0.1985	837.87 ± 0.73	1.3837 ± 0.0006	1179.6 ± 1.1	0.691 ± 0.012
323.15 K, x1 = 0.2973	867.27 ± 0.68	1.3974 ± 0.0006	1224.9 ± 1.1	0.731 ± 0.013
323.15 K, x1 = 0.3963	893.76 ± 0.63	1.4089 ± 0.0005	1266.6 ± 1.2	0.782 ± 0.013
323.15 K, x1 = 0.4948	917.3 ± 0.59	1.4195 ± 0.0006	1304.6 ± 1.2	0.833 ± 0.014
323.15 K, x1 = 0.5932	937.79 ± 0.57	1.4289 ± 0.0006	1337.3 ± 1.2	0.895 ± 0.015
323.15 K, x1 = 0.6912	956.8 ± 0.54	1.4372 ± 0.0006	1368.3 ± 1.2	0.952 ± 0.016
323.15 K, x1 = 0.7897	973.77 ± 0.53	1.4443 ± 0.0006	1396.1 ± 1.3	1.011 ± 0.017
323.15 K, x1 = 0.8875	989.78 ± 0.51	1.4512 ± 0.0006	1422.8 ± 1.3	1.071 ± 0.018
323.15 K, x1 = 1	1006.1 ± 0.5	1.4576 ± 0.0006	1450.2 ± 1.3	1.146 ± 0.019

CN1CCCC1=O [N-methylpyrrolidone] + O
Conditions	mass density, [1] [kg/m3]	refractive index, [2]	speed of sound, [1] [m/s]	viscosity, [1] [mPa·s]
293.15 K, x1 = 0.1	1030.11 ± 0.48	1.3907 ± 0.0008	1713.9 ± 1.7	3.332 ± 0.058
293.15 K, x1 = 0.2	1047.15 ± 0.46	1.4221 ± 0.0004	1766.5 ± 1	5.903 ± 0.086
293.15 K, x1 = 0.3001	1052.4 ± 0.46	1.4402 ± 0.0004	1751.6 ± 1	6.774 ± 0.095
293.15 K, x1 = 0.3994	1051.69 ± 0.47	1.4507 ± 0.0004	1718.4 ± 1.1	5.724 ± 0.086
293.15 K, x1 = 0.4997	1048.9 ± 0.48	1.4573 ± 0.0005	1683.7 ± 1.1	4.469 ± 0.07
293.15 K, x1 = 0.6001	1045.08 ± 0.49	1.4618 ± 0.0005	1651.6 ± 1.2	3.566 ± 0.056
293.15 K, x1 = 0.6997	1041.48 ± 0.5	1.4648 ± 0.0005	1623.8 ± 1.2	2.865 ± 0.045
293.15 K, x1 = 0.7982	1038.44 ± 0.51	1.4673 ± 0.0006	1601.2 ± 1.3	2.394 ± 0.038
293.15 K, x1 = 0.899	1035.42 ± 0.53	1.469 ± 0.0005	1581 ± 1.3	2.041 ± 0.033
293.15 K, x1 = 1	1032.87 ± 0.55	1.4706 ± 0.0006	1565.3 ± 1.4	1.858 ± 0.03
303.15 K, x1 = 0.1	1023.58 ± 0.46	1.3882 ± 0.0006	1694.6 ± 1.4	2.372 ± 0.041
303.15 K, x1 = 0.2	1038.47 ± 0.44	1.4187 ± 0.0005	1732 ± 1	3.958 ± 0.065
303.15 K, x1 = 0.3001	1043.03 ± 0.45	1.4363 ± 0.0005	1713 ± 1.1	4.365 ± 0.073
303.15 K, x1 = 0.3994	1042.22 ± 0.46	1.4467 ± 0.0005	1679.1 ± 1.1	3.959 ± 0.064
303.15 K, x1 = 0.4997	1039.51 ± 0.47	1.4533 ± 0.0005	1644.5 ± 1.1	3.318 ± 0.053
303.15 K, x1 = 0.6001	1035.8 ± 0.47	1.4576 ± 0.0005	1612.7 ± 1.2	2.71 ± 0.043
303.15 K, x1 = 0.6997	1032.32 ± 0.48	1.4608 ± 0.0005	1585.3 ± 1.2	2.279 ± 0.036
303.15 K, x1 = 0.7982	1029.36 ± 0.5	1.4628 ± 0.0006	1562.6 ± 1.2	1.969 ± 0.031
303.15 K, x1 = 0.899	1026.41 ± 0.51	1.4649 ± 0.0006	1542.6 ± 1.3	1.705 ± 0.028
303.15 K, x1 = 1	1023.95 ± 0.53	1.4664 ± 0.0006	1526.5 ± 1.3	1.553 ± 0.025
313.15 K, x1 = 0.1	1016.67 ± 0.44	1.3863 ± 0.0006	1674 ± 1.2	1.75 ± 0.03
313.15 K, x1 = 0.2	1029.62 ± 0.43	1.4165 ± 0.0005	1697 ± 1	2.749 ± 0.045
313.15 K, x1 = 0.3001	1033.55 ± 0.44	1.4331 ± 0.0005	1674.3 ± 1.1	3.01 ± 0.049
313.15 K, x1 = 0.3994	1032.64 ± 0.44	1.4425 ± 0.0005	1639.3 ± 1.1	2.89 ± 0.046
313.15 K, x1 = 0.4997	1030.02 ± 0.45	1.4492 ± 0.0005	1604.6 ± 1.1	2.51 ± 0.04
313.15 K, x1 = 0.6001	1026.44 ± 0.46	1.4534 ± 0.0005	1573.2 ± 1.2	2.153 ± 0.034
313.15 K, x1 = 0.6997	1023.08 ± 0.47	1.4565 ± 0.0005	1546.8 ± 1.2	1.834 ± 0.029
313.15 K, x1 = 0.7982	1020.23 ± 0.48	1.4584 ± 0.0005	1523.9 ± 1.2	1.641 ± 0.026
313.15 K, x1 = 0.899	1017.37 ± 0.5	1.4604 ± 0.0006	1504.1 ± 1.3	1.46 ± 0.024
313.15 K, x1 = 1	1015.03 ± 0.52	1.4621 ± 0.0006	1487.8 ± 1.3	1.324 ± 0.022
323.15 K, x1 = 0.1	1009.4 ± 0.43	1.384 ± 0.0013	1651.4 ± 1.2	1.348 ± 0.024
323.15 K, x1 = 0.2	1020.59 ± 0.42	1.4114 ± 0.0009	1661.6 ± 1	2.065 ± 0.036
323.15 K, x1 = 0.3001	1023.92 ± 0.42	1.4283 ± 0.0008	1634.9 ± 1.1	2.215 ± 0.037
323.15 K, x1 = 0.3994	1022.94 ± 0.43	1.4387 ± 0.0006	1599.4 ± 1.1	2.161 ± 0.036
323.15 K, x1 = 0.4997	1020.43 ± 0.44	1.445 ± 0.0006	1565.5 ± 1.1	1.959 ± 0.032
323.15 K, x1 = 0.6001	1016.99 ± 0.45	1.4495 ± 0.0006	1534.1 ± 1.1	1.706 ± 0.028
323.15 K, x1 = 0.6997	1013.78 ± 0.45	1.4524 ± 0.0006	1507.6 ± 1.2	1.485 ± 0.024
323.15 K, x1 = 0.7982	1011.06 ± 0.47	1.4546 ± 0.0005	1485.4 ± 1.2	1.361 ± 0.022
323.15 K, x1 = 0.899	1008.3 ± 0.48	1.4564 ± 0.0006	1466 ± 1.3	1.242 ± 0.021
323.15 K, x1 = 1	1006.1 ± 0.5	1.4576 ± 0.0006	1450.2 ± 1.3	1.146 ± 0.019
